# Measured values as given in US5444071A, “Quinoline derivatives and use thereof as angiotensin II antagonists” (Imperial Chemical Industries PLC, priority 1989, dated 1995).
# Tested on: angiotensin II-induced pressor responses
# Assay: Test C: antagonism of angiotensin II-induced pressor responses in rats
# Assay type: in vivo
# Conditions: iv, rat, i.v. administration
# Text: The antagonism of one or more of the physiological actions of AII and, in particular, the antagonism of the interaction of AII with the receptors which mediate its effects on a target tissue, may be assessed using one or more of the following, routine laboratory procedures: Test C: This in vivo test involves using terminally-anaesthetised or conscious rats in which an arterial catheter has been implanted under anaesthesia for the measurement of changes in blood pressure. The AII antagonistic effects of the test compound following oral or parenteral administration, are assessed against angiotensin II-induced pressor responses. To ensure that the effect is specific, the effect of the test compound on vasopressin-induced pressor responses may also be determined in the same preparation.
smiles,measurement,value
"Cc1cc(OCc2ccc(-c3ccccc3-c3nnn[nH]3)cc2)c2ccccc2n1.Cl [Example 7, 2-methyl-4-[(2'-(1H-tetrazol-5-yl)biphenyl-4-yl)methoxy]quinoline hydrochloride]",ED50,0.5 mg/kg
